From patent US9993453B2, “Dosage forms and therapeutic uses L-4-chlorokynurenine” (VISTAGEN THERAPEUTICS, INC., priority 2013, dated 2018)
Where two headings read alike, the source gives them in different places.

Columns and labels:
[1] = system: peripheral tissue inflammation and nerve injury; test: Animal models of peripheral tissue inflammation and nerve injury; format: in vivo
[2] = Safety and tolerability in humans (clinical study); format: in vivo, human; conditions: certain doses (360, 1,080, 1,440 mg daily oral)
Method: The compound is an antihyperalgesic.
“Without significant adverse effect” means that substantially all patients to whom L-4-chlorokynurenine is administered will have no more than a “mild” adverse event as defined by the U.S. Food and Drug Administration (FDA). The FDA defines a “mild adverse event” as an event that is easily tolerated by the subject, causing minimal discomfort and not interfering with everyday activities. In contrast, a “moderate adverse event” is an event that is sufficiently discomforting causing it to interfere with normal everyday activities.

[3] = Reported feelings of well-being (anti-depressive activity) in the clinical study; format: in vivo, human; conditions: zero subjects in the placebo group
Description: In the clinical study described in this application, 5 out of 26 subjects (as contrasted with zero subjects in the placebo group) affirmatively reported feelings of well being. This is consistent with reports that the glutamatergic system contributes to the pathophysiology of depression and that stress can induce changes in NMDA receptors. See, for example, Calabrese et al. “Stress-Induced Changes of Hippocampal NMDA Receptors: Modulation by Duloxetine Treatment,” PLoS ONE 2012, 7(5): e37916. doi:10.1371/journal.pone.0037916.

[4] = system: capsaicin-induced hyperalgesia; test: Antihyperalgesic effect on capsaicin-induced hyperalgesia (VAS pain assessments) in Phase 1b study; format: in vivo, human
Method: On Day 1 and Day 14 of the clinical study, two intradermal injections of 250 μg of capsaicin were injected sequentially into the volar aspect of alternate forearms to produce burning pain, secondary hyperalgesia, and a flare. The capsaicin USP (United States Pharmacopeia) was prepared according to the site's standard procedure and dissolved in 20% cyclodextrin at a concentration of 10 mg/mL.
The first capsaicin injection in one forearm was given 1 hour after oral administration of AV-101 or placebo, and the second capsaicin injection was given in the other forearm 2 hours after the administration of AV-101 or placebo. The neurosensory testing began immediately at each capsaicin injection. The serial pain assessments using a 100-mm visual analog scale (VAS) occurred at preinjection and 0, 5, 10, 15, 30, 45, and 60 minutes after each capsaicin injection. The examiner asked the subject to rate the intensity by using the VAS of the spontaneous pain and elicited pain from the application of a 5.18 von Frey hair, 40° C. probe, and gentle stroking with a 1-inch foam brush. The VAS consisted of a 100-mm line with “no pain” written at the 0-mm end and the “worst imaginable pain” written at the 100-mm end. The distance in millimeters provided the pain measurement.
At least eight determinations of the hyperalgesic area borders were made using the same assessments and starting at different angles. Additionally, subjects were asked to rate the pain intensity of a 1-minute 45° C. heat stimulus (brief thermal stimulation) applied to the anterior thigh at 4.5 hours (±5 minutes) after study drug administration, then every 30 minutes (±5 minutes) through 6 hours after study drug administration. A radiant temperature probe was applied to fix the skin temperature at 36° C. during the pain assessments. Subjects used the VAS for all pain assessments.
All study assessment time points were anchored to Time 0, the time of study drug administration. For the capsaicin injection at 1 hour after dosing, the assessment interval (i.e., time after dosing of the study drug) was 60 to 120 minutes, during which time assessments occurred at approximately 60, 65, 70, and 75 minutes and then every 15 minutes through the 120-minute time point (i.e., 0, 5, 10, 15, 30, 45, and 60 minutes after capsaicin injection). The second injection of capsaicin was administered approximately 2 hours after dosing of the clinical trial material (CTM), and the assessment interval (i.e., time after dosing of the CTM) was 120 to 180 minutes. The serial pain assessments followed the same schedule, as described after the first capsaicin injection.
The primary efficacy endpoint was the analgesic response to spontaneous pain at each dose level of AV-101 120 to 180 minutes after dosing on Day 14.

activated astrocytes = conditions: within activated astrocytes (Reference 5); cited from earlier work
[5] = after administration; cited from earlier work
dopaminergic neurons = conditions: brains of rats (Reference 7); cited from earlier work
seizures = conditions: rats, preclinical studies (Reference 11); cited from earlier work
[6] = human, in vivo, po
Method: (§1) A Phase 1b, single-site, randomized, double-blind, placebo-controlled, study was conducted involving multiple oral doses of AV-101 in healthy male and female subjects. Subjects were randomized into one of three cohorts (360, 1,080, and 1,440 mg) and received a daily oral dose for 14 consecutive days. […] The safety, pharmacokinetics (PK), tolerability of treatment, and antihyperalgesic effect of AV-101 on capsaicin-induced hyperalgesia were assessed.
(§2) Blood was collected in 6-mL lithium heparin Vacutainer tubes. Samples were centrifuged, and the plasma was separated from the cells and frozen within 30 minutes after centrifugation. Centrifuged samples were placed on ice until they were placed in the freezer. Plasma samples were stored frozen at approximately −20° C. until their shipment to a contractor for analysis.
(§3) Baseline samples (0 minutes) were collected before the drug was administered on Day 1 and on Day 14. Samples were then collected at 0.5, 1, 1.5, 2, 4, 6, 8, 12, and 24 hours after dosing on Day land Day 14.
(§4) Both assays used a plasma sample volume of 50.0 μL.

[7] = Phase 1b clinical study: plasma pharmacokinetics after single and multiple once-daily oral doses of AV-101; conditions: human plasma
Method: as §1, §2, §3, §4

[8] = biological target: glycine B (GlyB) coagonist site on the NMDA-R (Homo sapiens, UniProt Q05586); conditions: cited from earlier work
[9] = system: excitotoxic and ischemic neuronal damage; conditions: cited from earlier work
[10] = Day 1, after 1,440-mg oral dose of L-4-chlorokynurenine

SMILES: Nc1cc(Cl)ccc1C(=O)CC(N)C(=O)O [L-4-chlorokynurenine]
- Tolerability in animal models ([1]; at doses that produce antihyperalgesic effects): well tolerated
- Antihyperalgesic actions in animal models ([1]; three animal models of peripheral tissue inflammation and nerve injury): potent antihyperalgesic actions
- Safety and tolerability in humans [2]: safe and tolerable in humans without substantial side effects or any significant adverse effects
- Subjects affirmatively reporting feelings of well being [3]: 5 out of 26
- Least squares means of the AUPC for allodynia pain, mechanical hyperalgesia pain and heat hyperalgesia pain ([4]; 1,080 mg (Cohort 2) versus placebo): consistent decrease
- MAXPAIN, Spontaneous Pain ([4]; 1080 mg oral daily, n=13, 100-mm VAS, placebo 77.00): 75.08
- MAXPAIN, Allodynia Pain (foam brush) ([4]; 1080 mg oral daily, n=13, 100-mm VAS, placebo 79.50): 70.92
- MAXPAIN, Mechanical Allogesia ([4]; 1080 mg oral daily, n=13, 100-mm VAS, placebo 79.75): 66.23
- MAXPAIN, Heat Allogesia ([4]; 1080 mg oral daily, n=13, 100-mm VAS, placebo 84.75): 78.85
- Secondary efficacy endpoints (AUPC for spontaneous pain, elicited pain from von Frey hair and 40° C. probe) ([4]; 120 to 180 minutes Day 1, 60 to 180 minutes Days 1 and 14, versus placebo): no significant changes
- Area under the pain time curve (AUPC) for spontaneous pain, primary efficacy endpoint ([4]; each dose level, 120 to 180 minutes after dosing on Day 14, versus placebo): no significant change
- Subject-reported relief from neuropathic pain, specifically hyperalgesia pain ([4]; humans, at the clinical dosages): subjects reported relief from neuropathic pain
- Conversion to 7-chlorokynurenic acid (activated astrocytes): efficiently converted
- Crossing of the blood-brain barrier / access to the CNS [5]: readily gains access to the central nervous system
- Firing rate and burst firing activity of dopaminergic neurons (dopaminergic neurons): increase the firing rate and burst firing activity
- Anti-seizure activity (seizures): anti-seizure activity
- Dose linearity of mean L-4-chlorokynurenine Cmax and AUCO-∞ [6]: approximately dose linear, although not proportional
- Mean Cmax and AUCO-t of L-4-chlorokynurenine on Day 14 compared with Day 1 [6]: slightly lower on Day 14 than those on Day 1
- Mean L-4-chlorokynurenine AUCO-t [6]: 196 µg·h/mL
- Mean L-4-chlorokynurenine Tmax [6]: ~2 h
- Mean t½ of L-4-chlorokynurenine [6]: 1.64 to 1.82 h
- Mean L-4-chlorokynurenine AUCO-t ([6]; 360 mg): 64 µg·h/mL

SMILES: O=C(O)c1cc(O)c2ccc(Cl)cc2n1 [7-chlorokynurenic acid]
- Mean 7-chlorokynurenic acid Cmax ([7]; Day 1, after 360-mg oral dose of L-4-chlorokynurenine): 0.0427 µg/mL
- Mean 7-chlorokynurenic acid AUCO-t [7, 10]: 985 ng·b/mL
- Mean 7-chlorokynurenic acid Cmax [7, 10]: 0.314 µg/mL
- Mean 7-chlorokynurenic acid AUCO-t ([7]; Day 1, after lowest dose (360 mg) of L-4-chlorokynurenine): 156 ng·h/mL
- Dose linearity of mean 7-chlorokynurenic acid Cmax and AUCO-t ([7]; after oral L-4-chlorokynurenine 360 to 1,440 mg): approximately dose linear
- Mean Cmax and AUCO-t of 7-chlorokynurenic acid on Day 14 compared with Day 1 ([7]; once-daily oral L-4-chlorokynurenine for 14 days): slightly lower on Day 14 than those on Day 1
- Crossing of the blood-brain barrier / access to the CNS [5]: does not cross the blood-brain barrier
- GlyB antagonist potency and specificity [8]: One of the most potent and specific GlyB antagonists
- Prevention of excitotoxic and ischemic neuronal damage [9]: prevent excitotoxic and ischemic neuronal damage
